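Results reflect a 48-hour exposure of cells in 96-well plates to compound at five concentrations. Abbreviation: GI50, concentration required for 50% inhibition of growth.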 Activity calls are given as the source filed them. No stated cut-off is given here; in the data, active = GI50 up to about 1.1 µM and inactive = higher.
Columns and labels:
Experiment in all cases: NCI anticancer screen, dose series, 48 h
CAKI-1 = test system: CAKI-1
COLO 205 = test system: COLO 205
HCT-116 = test system: HCT-116
HT-29 = test system: HT-29
KM12 = test system: KM12
MDA-MB-231 = test system: MDA-MB-231
MDA-MB-435 = test system: MDA-MB-435
MOLT-4 = test system: MOLT-4
NCI-H226 = test system: NCI-H226
NCI-H522 = test system: NCI-H522
NCI/ADR-RES = test system: NCI/ADR-RES
OVCAR-5 = test system: OVCAR-5
SF-268 = test system: SF-268
SF-539 = test system: SF-539
SK-OV-3 = test system: SK-OV-3
T47D = test system: T47D
U-251 = test system: U-251
HCC 2998 = test system: HCC 2998
IGROV-1 = test system: IGROV-1

Measured: GI50

CC(C)(C)OC(=O)C(C#N)C(=O)c1ccc(C(=O)O)[nH]1 (stereo not drawn)
inactive: CAKI-1 18.8 µM | COLO 205 40.2 µM | HCT-116 38.4 µM | HT-29 39.2 µM | KM12 34.8 µM | MDA-MB-231 29.4 µM | MDA-MB-435 32.3 µM | MOLT-4 33.6 µM | NCI-H226 38 µM | NCI-H522 33.5 µM | NCI/ADR-RES 12.7 µM | OVCAR-5 48.4 µM | SF-268 47.4 µM | SF-539 51.6 µM | SK-OV-3 42 µM | T47D 34.6 µM | U-251 30.6 µM

CCOC(=O)C1S/C(=N\C(=N)N[N+](=O)[O-])N=C1C (stereo not drawn)
inactive: COLO 205 > 100 µM | HCC 2998 > 100 µM | HCT-116 > 100 µM | HT-29 > 100 µM | IGROV-1 > 100 µM | KM12 > 100 µM | MOLT-4 > 100 µM | NCI-H226 > 100 µM | NCI-H522 > 100 µM | OVCAR-5 > 100 µM | SF-268 > 100 µM | SF-539 > 100 µM | U-251 > 100 µM

C[C@]12CC[C@H](OCCC#N)CC1=CC[C@@H]1C2CC[C@]2(C)/C(=N/OCCC#N)CCC12 (stereo partly drawn)
inactive: CAKI-1 26.1 µM | COLO 205 > 100 µM | HCC 2998 > 100 µM | HCT-116 > 21 µM | IGROV-1 > 100 µM | KM12 > 100 µM | MOLT-4 > 100 µM | NCI-H226 > 100 µM | NCI-H522 20.9 µM | OVCAR-5 > 100 µM | SF-268 > 100 µM | SF-539 55 µM | SK-OV-3 > 63 µM | U-251 24.8 µM

COCCOCC(=O)N(CCn1ccc(NC(c2ccccc2)(c2ccccc2)c2ccccc2)nc1=O)CCn1cnc2nc(N)[nH]c(=O)c21
inactive: CAKI-1 > 100 µM | COLO 205 > 100 µM | HCC 2998 > 100 µM | HCT-116 > 100 µM | HT-29 > 100 µM | IGROV-1 > 100 µM | KM12 > 100 µM | MOLT-4 > 100 µM | NCI-H226 > 100 µM | OVCAR-5 > 100 µM | SF-268 > 100 µM | SF-539 > 100 µM | U-251 > 100 µM

CC(=O)OC[C@@H]1[C@H]2CC(=O)O[C@H]2C[C@H]1OC(C)=O
inactive: CAKI-1 > 100 µM | COLO 205 24.7 µM | HCC 2998 > 100 µM | HCT-116 94 µM | HT-29 > 100 µM | IGROV-1 > 100 µM | KM12 > 100 µM | MOLT-4 > 100 µM | NCI-H522 > 100 µM | OVCAR-5 > 100 µM | SF-268 > 100 µM | SF-539 > 100 µM | SK-OV-3 > 100 µM | U-251 > 100 µM

Cc1ccc(/C=N/NS(=O)(=O)c2ccccc2)cc1
inactive: CAKI-1 > 100 µM | COLO 205 > 100 µM | HCC 2998 > 100 µM | HCT-116 > 100 µM | HT-29 > 100 µM | IGROV-1 > 100 µM | KM12 > 100 µM | MOLT-4 > 100 µM | NCI-H226 > 100 µM | OVCAR-5 > 100 µM | SF-268 > 100 µM | SF-539 > 100 µM | SK-OV-3 > 100 µM | U-251 > 100 µM

CC1(C)C(O)OC(O)C1(C)C (stereo not drawn)
inactive: CAKI-1 > 100 µM | COLO 205 > 100 µM | HCC 2998 > 100 µM | HCT-116 33.9 µM | HT-29 62.4 µM | IGROV-1 > 100 µM | KM12 > 100 µM | MOLT-4 49.2 µM | NCI-H226 18.1 µM | OVCAR-5 > 100 µM | SK-OV-3 > 100 µM | U-251 > 100 µM

CCOC(=O)/C(C(=O)c1ccc([N+](=O)[O-])cc1)=C(\NS(=O)(=O)c1cc(C)c(Cl)cc1[S-])[n+]1ccc(N(C)C)cc1
inactive: CAKI-1 35.1 µM | COLO 205 29.9 µM | HCT-116 19.2 µM | HT-29 24 µM | IGROV-1 45.3 µM | KM12 27.4 µM | MDA-MB-231 47.9 µM | MDA-MB-435 32.8 µM | MOLT-4 32.2 µM | NCI-H226 51.8 µM | NCI-H522 12.4 µM | NCI/ADR-RES 43.1 µM | OVCAR-5 28.8 µM | SF-268 37.1 µM | SF-539 21.5 µM | SK-OV-3 25.8 µM | T47D 50.8 µM | U-251 41.6 µM

COc1ccc(C(c2ccc(C(C)C)cc(OC)c2=O)c2ccc(C(C)C)cc(OC)c2=O)cc1
inactive: CAKI-1 18.9 µM | COLO 205 17.2 µM | HCT-116 11.1 µM | HT-29 10.8 µM | KM12 13.5 µM | MOLT-4 7.53 µM | NCI-H226 18.1 µM | NCI-H522 14.4 µM | OVCAR-5 20.1 µM | SF-268 13.6 µM | SF-539 17 µM | SK-OV-3 18.4 µM | U-251 13.7 µM

From ChEMBL document CHEMBL1201862, “PubChem BioAssay data set” (2004)
